{"source": "paper PMC9515143", "about": "“Phosphorylation of Jhd2 by the Ras-cAMP-PKA(Tpk2) pathway regulates histone modifications and autophagy” (Nature Communications, 2022)", "format_in_all_cases": "cell-based, budding yeast (Saccharomyces cerevisiae)", "key": {"H3K4me3 [1]": {"test_system": "H3K4me3", "experiment": "Western blot of H3K4me3 in yeast cells treated with glucose, 2-DG, FBP or pyruvate", "conditions": "WT cells, YP medium with different glucose concentrations, 0.5 hr", "source_text": "(§1) To examine the effect of glucose on histone modifications, we grew yeast cells in 2% glucose-containing medium (YPD) until log phase. Cells were collected and then grown in the medium containing different concentrations of glucose for 0.5 hr.\nPKA is activated by cyclic AMP (cAMP), which binds to its inhibitory subunit, Bcy1 and causes its dissociation (Fig. 1g). We thus examined H3K4me3 in deletion mutants of cAMP phosphodiesterases PDE1 and PDE2, which encode enzymes to hydrolyze cAMP and inactivate PKA[39],[40]. […] To test whether the Ras-cAMP-PKA pathway mediates glucose-induced H3K4me3, we examined H3K4me3 in ras1Δ and ras2Δ mutants. […] Ras1/2 can be activated by glycolysis-derived fructose-1,6-biphosphate (FBP) via Cdc25[6] (Fig. 1g).\n(§2) To examine the effect of glucose on histone modifications, yeast cells were grown in 2% glucose-containing YPD (Yeast Extract Peptone Dextrose) medium until OD600 of 0.7–1.0. Cells were then collected, washed and resuspended in YP medium for 3 hr followed by treatment with different concentrations of glucose for 0.5 hr. For 1NM-PP1 (MCE, HY-13804) treatment, cells were grown in 2% YPD until OD600 of 0.7–1.0. Cells were then treated with 25 μM 1NM-PP1 for 0.5 hr. For FBP and pyruvate treatment, cells were pre-treated with Zymolase (Mpbio, 08320921) to increase the permeability. In brief, cells were grown in YPD medium until OD600 of 0.7–1.0, centrifuged and resuspended in 1 ml SB buffer (100 mM Sorbitol, 20 mM Tris pH 7.4). 10 μl Zymolase was then added and incubated at 30 °C for 15 min. The spheroplasts were washed and cultured in YPD medium containing different concentrations of FBP and pyruvate for 3 hr.\n(§3) Cells were grown in 5 ml YPD or selective medium until OD600 of 0.7–1.0. Cells were harvested and lysed in alkaline lysis buffer (2 M NaOH, 8% 2-mercaptoethanol). After centrifugation, the protein pellet was resuspended in 150 μl 2×SDS-sample buffer. Protein samples were separated by 8–15% SDS-PAGE and transferred to PVDF membrane. The blots were probed with primary antibodies followed by incubation with horseradish peroxidase-labelled IgG secondary antibodies. The protein bands were visualized using the ECL Chemiluminescence Detection Kit (Bio-Rad, 170–5061) and quantified with Image J software (v.1.8.0)."}, "H3K4me1 and H3K4me2": {"test_system": "H3K4me1 and H3K4me2", "experiment": "Western blot of H3K4me1 and H3K4me2 in yeast cells treated with glucose", "conditions": "WT cells, different glucose concentrations, 0.5 hr", "method": "as §1, §2\nCells were grown in 5 ml YPD or selective medium until OD600 of 0.7–1.0. […] The protein bands were visualized using the ECL Chemiluminescence Detection Kit (Bio-Rad, 170–5061) and quantified with Image J software (v.1.8.0)."}, "H3K79me3": {"test_system": "H3K79me3", "experiment": "ChIP-qPCR of H3K79me3/H3 (rebuttal)", "conditions": "0.05% versus 2% glucose"}, "H2Bub": {"test_system": "H2Bub", "experiment": "Western blot of H2B monoubiquitination (H2Bub) after glucose", "conditions": "for H2Bub/H2B: 0.5 hr", "method": "as §2, §3\n(§4) Supplementary Fi g . […] WT (a) and H2B-F LA G cel ls (b) wer e grown in YPD medium until OD600 of 0.7.\n(§5) Cells were th en tr eat ed with YP medium supplement ed with differen t concentrations of glucos e for 0.5 hr. C ells were h ar vested an d the ex tract ed histones w er e anal yz ed by Western blots with indicat ed ant ibodies. To d et ect H2B monoubiquitination, H2B-F LAG strain w as used and d et ect ed with anti -F LAG ant ibody. Th e upper bands ar e monoubiquitinat ed H2B-F LAG. c E ff e c t of gl ucose on histone modifications in WT and ubp8∆ ubp10∆ mutant. WT and ubp8∆ ubp10∆ mut ant w er e gro wn in YPD medium unti l OD600 of 0.7. Cells wer e th en treated with YP medium supplem ent ed with di fferent con cen tr ations of gl u cos e fo r 0.5 hr. d Gluco se has no effect on the activit y of C O M PA S S . Spp1-TA P cells wer e grown in YPD medium until OD600 of 1.5. Cells were h arv est ed and then treat ed with YP + 0.05% glucos e and YP + 4% gl u cos e for 0.5 hr. Spp1-cont aining COMPASS (Spp1-CBP ) was then p urifi ed by tand em affinit y puri fi cati on ( TA P ) . Th e in vitro hi stone meth yltransferase assa y was p er form ed wit h purifi ed C O M PA S S and in vitro assembl ed nucl eosom es. e E ff e c t of the m TO R pathwa y on H3K4 meth ylation. […]\n(§6) For Supplem ent ar y Fi g. 1b, e-g, i-k, d at a r ep res ent means ± SEM; n=3 i ndependent ex perim ents. For Supplem entar y Fi g. 1c, d ata represent means ± SEM; n=4 independent ex periments. Tw o -sided t-tests were used for statistical analysis."}, "H3K4me3 [2]": {"test_system": "H3K4me3", "experiment": "Western blot of H3K4 methylation in mutants", "method": "as §3"}, "Jhd2 phosphorylation": {"test_system": "Jhd2 phosphorylation", "experiment": "Jhd2 phosphorylation in cells at different glucose concentrations", "conditions": "0.05%, 0.5%, 2% glucose, WT, Jhd2-S321A, S340A and tpk2Δ", "method": "as §2\nas §3, with “The blots were probed with primary antibodies followed by incubation with horseradish peroxidase-labelled IgG secondary antibodies.” left out"}, "H3R2me2a": {"test_system": "H3R2me2a", "experiment": "Western blot of H3R2me2a after glucose", "conditions": "for H3R2me2a/H3: 0.5 hr", "method": "as §2, §3, §4, §5, §6"}, "[3]": {"conditions": "0.5% glucose, relative to 0.05% glucose = 1, replicate 1"}, "[4]": {"conditions": "0.5% glucose, relative to 0.05% glucose = 1, replicate 2"}, "[5]": {"conditions": "0.5% glucose, relative to 0.05% glucose = 1, replicate 3"}, "[6]": {"conditions": "1% glucose, relative to 0.05% glucose = 1, replicate 1"}, "[7]": {"conditions": "1% glucose, relative to 0.05% glucose = 1, replicate 2"}, "[8]": {"conditions": "1% glucose, relative to 0.05% glucose = 1, replicate 3"}, "[9]": {"conditions": "2% glucose, relative to 0.05% glucose = 1, replicate 1"}, "[10]": {"conditions": "2% glucose, relative to 0.05% glucose = 1, replicate 2"}, "[11]": {"conditions": "2% glucose, relative to 0.05% glucose = 1, replicate 3"}, "[12]": {"conditions": "4% glucose, relative to 0.05% glucose = 1, replicate 1"}, "[13]": {"conditions": "4% glucose, relative to 0.05% glucose = 1, replicate 2"}, "[14]": {"conditions": "4% glucose, relative to 0.05% glucose = 1, replicate 3"}}, "data": [{"compound": "OC[C@H]1OC(O)[C@H](O)[C@@H](O)[C@@H]1O", "note": "(some centres unmarked) [glucose]", "values": [{"measurement": "H3K4me3 level", "setting": "H3K4me3 [1]", "result": "induced H3K4me3 in a dose-dependent manner"}, {"measurement": "H3K4me1 and H3K4me2 level", "setting": "H3K4me1 and H3K4me2", "result": "had no effect on H3K4me1 and H3K4me2"}, {"measurement": "H3K79me3 occupancy at PAU8, DRS2 and ATG5", "setting": "H3K79me3", "result": "glucose significantly increased H3K79me3 at H2Bub-dependent genes (PAU8, DRS2)"}, {"measurement": "H2Bub/H2B", "setting": "H2Bub; [3]", "result": 1.541}, {"measurement": "H2Bub/H2B", "setting": "H2Bub; [4]", "result": 1.389}, {"measurement": "H2Bub/H2B", "setting": "H2Bub; [5]", "result": 1.9778}, {"measurement": "H2Bub/H2B", "setting": "H2Bub; [6]", "result": 1.812}, {"measurement": "H2Bub/H2B", "setting": "H2Bub; [7]", "result": 3.264}, {"measurement": "H2Bub/H2B", "setting": "H2Bub; [8]", "result": 4.024}, {"measurement": "H2Bub/H2B", "setting": "H2Bub; [9]", "result": 2.484}, {"measurement": "H2Bub/H2B", "setting": "H2Bub; [10]", "result": 4.332}, {"measurement": "H2Bub/H2B", "setting": "H2Bub; [11]", "result": 3.575}, {"measurement": "H2Bub/H2B", "setting": "H2Bub; [12]", "result": 3.885}, {"measurement": "H2Bub/H2B", "setting": "H2Bub; [13]", "result": 5.306}, {"measurement": "H2Bub/H2B", "setting": "H2Bub; [14]", "result": 5.56}, {"measurement": "H2Bub level", "setting": "H2Bub; H2B-FLAG cells, glucose 0.5 hr, Western blot", "result": "induced H2Bub"}, {"measurement": "H3K4me3 level in chd1Δ mutant", "setting": "H3K4me3 [2]; chd1Δ, different glucose concentrations, 0.5 hr, Western blot (rebuttal)", "result": "glucose-induced"}, {"measurement": "H3K4me3 level, WT versus tpk2Δ", "setting": "H3K4me3 [2]; increasing glucose concentrations, Western blot", "result": "induced H3K4me3 in WT but not tpk2Δ mutant"}, {"measurement": "Jhd2 phosphorylation in response to glucose", "setting": "Jhd2 phosphorylation", "result": "Jhd2 phosphorylation was elevated when the concentration of glucose was increased from 0.05 to 2% in WT but not in Jhd2-S321A, S340A and tpk2Δ mutants"}, {"measurement": "H3R2me2a/H3", "setting": "H3R2me2a; [3]", "result": 1.016}, {"measurement": "H3R2me2a/H3", "setting": "H3R2me2a; [4]", "result": 0.8082}, {"measurement": "H3R2me2a/H3", "setting": "H3R2me2a; [5]", "result": 1.063}, {"measurement": "H3R2me2a/H3", "setting": "H3R2me2a; [6]", "result": 1.0068}, {"measurement": "H3R2me2a/H3", "setting": "H3R2me2a; [7]", "result": 0.9832}, {"measurement": "H3R2me2a/H3", "setting": "H3R2me2a; [8]", "result": 1.068}, {"measurement": "H3R2me2a/H3", "setting": "H3R2me2a; [9]", "result": 0.9685}, {"measurement": "H3R2me2a/H3", "setting": "H3R2me2a; [10]", "result": 0.8294}, {"measurement": "H3R2me2a/H3", "setting": "H3R2me2a; [11]", "result": 0.8742}, {"measurement": "H3R2me2a/H3", "setting": "H3R2me2a; [12]", "result": 1.047}, {"measurement": "H3R2me2a/H3", "setting": "H3R2me2a; [13]", "result": 0.9174}, {"measurement": "H3R2me2a/H3", "setting": "H3R2me2a; [14]", "result": 0.9548}, {"measurement": "H3R2me2a level", "setting": "H3R2me2a; glucose 0.5 hr, Western blot", "result": "had no significant effect on H3R2me2a"}]}]}
